Reference: patent US12349708B2, “Use and methods of 1,3-propanediol to improve taste and/or off-taste qualities” (Primient Covation LLC, priority 2019, dated 2025)
“Also recorded” adds a separate entry of the source. Where a name gives a salt, the structure may show the parent alone.

Tests used:
[1] = tested on: experienced and trained panelist; assay: Sensorial description of energy drinks and additive solutions with propylene glycol or biologically-produced 1,3-propanediol (multi-sip-and-swallow taste method); settings: for Sensorial Description: RT;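 on all read-outs here: propylene glycol or 1,3-propanediol added at 0.01, 0.1 or 1.0%, tasted by multi-sip-and-swallow in duplicate, compared with matching controls lacking either additive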
[2] = 0.05% in black tea; U.S. Pat. No. 8,685,436; cited from earlier work

CC(O)CO (stereo not drawn) [PG, propylene glycol, reference compound]
Sensorial Description ([1]; 0.01% PG or PDO in 238 ppm sucralose (10% SE) in distilled water): 6-7% SE, significantly less sweet
Sensorial Description ([1]; 0.01% PG or PDO in 338 ppm caffeine in distilled water (caffeine drink)): Looked similar to Control #72.
Sensorial Description ([1]; 0.01% PG or PDO in 3,338 ppm caffeine in distilled water (caffeine shot)): (small sip): similar to Control #65.
Sensorial Description ([1]; 0.01% PG or PDO in 10,500 ppm malic acid and 2,000 ppm sucralose in distilled water): Less sweetness and sourness intensities (different
Sensorial Description ([1]; 0.01% PG or PDO in Bang energy drink): Significantly less sweet and its lingering but still
Sensorial Description ([1]; 0.01% PG or PDO in Berry flavor in distilled water): Less dry than Control #114, slight less flavor.
Sensorial Description ([1]; 0.01% PG or PDO in Monster Energy Zero Ultra): Significant less off-taste, less sourness, significantly
Sensorial Description ([1]; 0.01% PG or PDO in Monster Energy drink): Note: Loss of carbonation. Significantly less
Sensorial Description ([1]; 0.01% PG or PDO in NOS High Performance Energy Drink): Significantly less sourness and flavor, less sweet.
Sensorial Description ([1]; 0.01% PG or PDO in Orange 5-hour ENERGY shot (5HE Orange)): Significantly less flavor and bitterness, still strong
Sensorial Description ([1]; 0.01% PG or PDO in Red Bull Energy Drink): Much better taste quality overall significantly less
Sensorial Description ([1]; 0.01% PG or PDO in Red Bull Sugar Free): Significantly less off-tastes, still different off-taste
Sensorial Description ([1]; 0.01% PG or PDO in Rockstar Original energy drink): Clearer off-flavor than sweet/sour, less sourness but
reduction of sweetness and lingering at 1st half of the taste time ([1]; 0.01% in 2,000 ppm sucralose in distilled water): lingering, ~40% less at 1st half of the taste time,
Sensorial Description ([1]; 0.1% PG or PDO in 238 ppm sucralose (10% SE) in distilled water): ~5-6% SE, slightly less sweetness
Sensorial Description ([1]; 0.1% PG or PDO in 2,000 ppm sucralose in distilled water): (small sip): Less overall sweet quality including 2nd
Sensorial Description ([1]; 0.1% PG or PDO in 3,338 ppm caffeine in distilled water (caffeine shot)): (small sip): similar to Control #65.
Sensorial Description ([1]; 0.1% PG or PDO in Berry 5-hour ENERGY shot (5HE Berry)): Significantly less sweet and aftertaste and sweet
Sensorial Description ([1]; 0.1% PG or PDO in Berry flavor in distilled water): Less dry than 0.01% PG, slight less flavor.
Sensorial Description ([1]; 0.1% PG or PDO in Monster Energy Zero Ultra): More smooth tasting quality, less sourness, no bitter,
Sensorial Description ([1]; 0.1% PG or PDO in Monster Energy drink): Note: Loss of carbonation. Similar carbonic acid off-
Sensorial Description ([1]; 0.1% PG or PDO in NOS High Performance Energy Drink): No bitterness, smoother, still flavor and sweet, less
Sensorial Description ([1]; 0.1% PG or PDO in Orange 5-hour ENERGY shot (5HE Orange)): Less flavor, no bitterness, still strong sourness but less
Sensorial Description ([1]; 0.1% PG or PDO in Red Bull Energy Drink): Note: Loss of carbonation. Medium flavor level, less
Sensorial Description ([1]; 0.1% PG or PDO in Red Bull Sugar Free): Flatter, smoothness, still different off-taste as 0.01%
reduction of overall sweet quality ([1]; 0.1% in 2,000 ppm sucralose in distilled water): half of tasting time, ~10-20% less than 0.01% PG,
Sensorial Description ([1]; 1.0% PG or PDO in 79 ppm sucralose (5% SE) in distilled water): Weak PG taste note, similar sweet quality.
Sensorial Description ([1]; 1.0% PG or PDO in 238 ppm sucralose (10% SE) in distilled water): Slight PG taste, sweet smoother
Sensorial Description ([1]; 1.0% PG or PDO in 338 ppm caffeine in distilled water (caffeine drink)): Worst quality, more bitterness, medium intensity,
Sensorial Description ([1]; 1.0% PG or PDO in 2,000 ppm sucralose in distilled water): (small sip): Similar to 0.1% PG. Repeated tests
Sensorial Description ([1]; 1.0% PG or PDO in 3,338 ppm caffeine in distilled water (caffeine shot)): (small sip): similar to Control #65, no PG taste
Sensorial Description ([1]; 1.0% PG or PDO in 10,500 ppm malic acid and 2,000 ppm sucralose in distilled water): PF taste note, similar qualities as 0.1% PG.
Sensorial Description ([1]; 1.0% PG or PDO in 10,500 ppm malic acid, 2,000 ppm sucralose, 3,338 ppm caffeine in distilled water): Stronger, thinner sourness quality.
Sensorial Description ([1]; 1.0% PG or PDO in B vitamins at 5-hour Energy shot concentrations in distilled water): PG flavor taste, similar other qualities as Control
Sensorial Description ([1]; 1.0% PG or PDO in Berry 5-hour ENERGY shot (5HE Berry)): Began to show more sourness across the taste, still
Sensorial Description ([1]; 1.0% PG or PDO in Berry flavor in distilled water): Less dry than Control #114, slight less flavor.
Sensorial Description ([1]; 1.0% PG or PDO in Monster Energy Zero Ultra): Very smooth, flat tasting quality of basic tastes, no
Sensorial Description ([1]; 1.0% PG or PDO in Monster Energy drink): Note: Little carbonation. Little or no sourness, very
Sensorial Description ([1]; 1.0% PG or PDO in NOS High Performance Energy Drink): Smoother than 0.1% PG, low-medium flavor, low
Sensorial Description ([1]; 1.0% PG or PDO in Orange 5-hour ENERGY shot (5HE Orange)): Less flavor, sourness and sweetness, still moderate
Sensorial Description ([1]; 1.0% PG or PDO in Red Bull Energy Drink): Note: significantly less or no carbonation. Low
Sensorial Description ([1]; 1.0% PG or PDO in Red Bull Sugar Free): Medium off-flavor (not described) in middle tasting
Sensorial Description ([1]; 1.0% PG or PDO in Rockstar Original energy drink): Slight off-flavor (seems like PDO's off flavor), little
reduction in unpleasant taste or masking of off-taste ([1]; 2,000 ppm, 238 ppm, or 70 ppm sucralose in distilled water): No reduction in unpleasant taste, or masking of off-taste
reduction of unpleasant taste / masking of bitterness ([1]; 3,382 ppm or 338 ppm caffeine in distilled water): did not reduce the unpleasant taste, or mask the bitterness
taste modulation of B vitamins ([1]; aqueous B vitamins at concentrations comparable to 5-hour ENERGY shots): did not positively modulate
modulation of berry flavor ([1]; berry flavor in distilled water): Neither biologically-produced 1,3-propanediol, nor propylene glycol modulated the flavor
taste modulation or sour masking ([1]; malic acid at 10,500 ppm in distilled water): no positive taste modulation or sour masking effect
taste modulation of single additive solutions ([1]; separate caffeine, malic acid, and sucralose solutions at mega-dose levels): did not positively modulate the taste or mask the bitter, off, or sour tastes; also recorded: neither propylene glycol, nor biologically-produced 1,3-propanediol modulated the taste

COc1cc([C@@H]2CC(=O)c3c(O)cc(O)cc3O2)ccc1O [homoeriodictyol disodium salt]
perceived bitterness [2]: reduced the perceived bitterness

O=C(O)CC(O)C(=O)O (stereo not drawn) [malic acid]
Sensorial Description ([1]; control: 10,500 ppm malic acid in distilled water, no PG or PDO): Extreme sourness, clean sourness quality, slightly dry

OC[C@H]1O[C@H](O[C@]2(CCl)O[C@H](CCl)[C@@H](O)[C@@H]2O)[C@H](O)[C@@H](O)[C@H]1Cl [sucralose]
Sensorial Description ([1]; control: 79 ppm sucralose in distilled water, no PG or PDO): Comfortably 5% SE sweet, good sweet quality
Sensorial Description ([1]; control: 238 ppm sucralose in distilled water, no PG or PDO): 10% SE, delayed onset of sweetness, very sweet
Sensorial Description ([1]; control: 2,000 ppm sucralose in distilled water, no PG or PDO): (small sip): Extremely sweet, extremely strong sweet
